Test results reported in ChEMBL document CHEMBL1201862, “PubChem BioAssay data set” (2004).
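Five concentrations, 48 hours, 96-well plates. Abbreviation: GI50, concentration required for 50% inhibition of growth.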 The source made the active and inactive calls. Rule as the data show it: active = GI50 up to about 1.1 µM and inactive = higher.

Columns and labels:
Assay in all cases: NCI tumour cell line growth inhibition, 48 h
[1] = test system: HOP-18
[2] = test system: DLD-1
[3] = test system: LXFL 529
[4] = test system: DMS-114
[5] = test system: SNB-78
[6] = test system: KM-20L2
[7] = test system: XF498
[8] = test system: RXF 631
[9] = test system: DMS-273

Measured: GI50

Clc1ccc(C(c2ccc(Cl)cc2)c2ccccn2)cc1
inactive: [1] 24.8 µM | [2] 20.8 µM | [3] 17.7 µM | [4] 28.4 µM | [5] 33.8 µM | [6] 14.4 µM | [7] 18.2 µM

Cc1cc2c(c(C#N)c1C)NC(=O)C(CC(=O)O)C2=O (stereo unspecified)
inactive: [1] > 100 µM | [2] > 100 µM | [8] > 100 µM | [3] > 100 µM | [4] > 100 µM | [9] > 100 µM | [5] > 100 µM | [6] > 100 µM | [7] > 100 µM

C[N+](C)(C)CC(=O)N/N=C(/Cc1cc(=O)oc2cc(O)ccc12)C(=O)Nc1ccc(Cl)cc1
inactive: [2] > 100 µM | [8] > 100 µM | [4] > 100 µM | [6] > 100 µM

CC[N+](CC)(CC)Cc1cc2ccccc2n1C(=O)OC
inactive: [2] > 100 µM | [3] > 100 µM | [4] > 100 µM | [9] > 100 µM | [6] > 100 µM | [7] > 100 µM

COc1cccc(C=O)c1C(=O)c1cc(O)ccc1O
inactive: [1] 25.1 µM | [2] 16.3 µM | [4] 11 µM | [9] > 58.7 µM | [5] > 45.9 µM | [6] > 100 µM | [7] 44.2 µM

C=C1C(=O)c2cc3c(cc2C(c2cc(OC)c(OC)c(OC)c2)[C@@H]1C(=O)O)OCO3 (stereo partly specified)
inactive: [1] > 100 µM | [2] 55.3 µM | [3] 51.5 µM | [4] 36.7 µM | [9] > 10 µM | [5] 49.1 µM

CCCN/C(N)=N/C#N
inactive: [1] > 100 µM | [2] 66.8 µM | [3] 76.6 µM | [4] 19.4 µM | [9] 62.1 µM | [5] > 100 µM | [6] 34.7 µM

CCc1cccc(C)c1N1C(=O)C(=O)C(c2nc3ccccc3o2)C(=O)C1=O
inactive: [1] > 100 µM | [2] > 100 µM | [3] > 100 µM | [9] > 100 µM | [5] > 100 µM | [6] > 100 µM | [7] > 100 µM

CCCCCCCCCCCCCP(=O)(OC)OC
inactive: [1] 18.1 µM | [2] 16.1 µM | [8] 17.7 µM | [3] 19.1 µM | [4] 21.6 µM | [9] 19.1 µM | [5] 17.5 µM | [6] 26.8 µM | [7] 17.9 µM

Nc1ccc(C(=O)N/C(=C\c2cccc([N+](=O)[O-])c2)c2nc3ccccc3[nH]2)cc1
inactive: [2] 66.8 µM | [3] 29.4 µM | [4] 29.4 µM | [9] 55.2 µM | [5] 57.3 µM | [6] > 87.1 µM | [7] 23.5 µM

COC(=O)C(=O)C1(CCC(C)=O)c2ccccc2-c2c(C)ccc(C)c21 (stereo unspecified)
inactive: [1] 56.4 µM | [2] 50.1 µM | [3] 37.8 µM | [4] 33.7 µM | [9] 31.6 µM | [5] 19 µM | [6] 58.3 µM

O=C(/C=C\c1cccc2ccccc12)c1ccc(F)cc1
inactive: [1] 14.3 µM | [2] 19.1 µM | [3] 17.1 µM | [4] 14.4 µM | [9] 15.2 µM | [5] 19.8 µM | [6] 16.6 µM

CN(C(=O)C12C3C4C1C1C4(C(=O)C45C6C7C4C4C5C6C74C)C3C12C)C(C)(C)C (stereo unspecified)
inactive: [2] 56.5 µM | [8] 34.6 µM | [3] 37.8 µM | [4] 39.8 µM | [9] 53.6 µM | [5] 78.3 µM | [6] 31.2 µM | [7] 49 µM
